How the values were obtained:
human TRPV4 [1] = target: T1, human TRPV4 (Homo sapiens (Human), UniProt Q9HBA0); test: Test Example 1: measurement of TRPV4 inhibitory activity (Fluo 4-AM, FLIPR TETRA, 4α-PDD 1 μmol/L); type: cell-based; conditions: hTRPV4/CHO cells, 4α-PDD 1 μmol/L
Method in brief: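 Calcium influx evoked by 4α-PDD (final 1 μmol/L) in hTRPV4/CHO-K1 cells loaded with Fluo-4 AM (final 3 μmol/L), pH 7.4 HEPES-Hanks with probenecid; compounds added 5 min earlier. Inhibition relative to 20 μM Ruthenium Red gave IC50 (logistic), converted to Ki via agonist EC50.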

human TRPV4 [2] = target: T1, human TRPV4; test: Test Example 3: measurement of TRPV4 inhibitory activity (Fluo-3, FDSS 3000, 4α-PDD); type: cell-based; conditions: hTRPV4/CHO cells, calculated from IC50 and 4α-PDD EC50
Method in brief: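 Fluo-3-loaded CHO-K1 cells stably expressing TRPV4 in HEPES/probenecid Hanks buffer pH 7.4; compound added, then 4α-PDD, Ca2+ fluorescence (Ex 480/Em 540 nm) read 8 min. Max-Min normalized to 10 μM Ruthenium Red (100%) and vehicle; IC50 from 10-point 3-fold series converted to Ki using 4α-PDD EC50 and concentration.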

T1 sequence (Q9HBA0 whole entry): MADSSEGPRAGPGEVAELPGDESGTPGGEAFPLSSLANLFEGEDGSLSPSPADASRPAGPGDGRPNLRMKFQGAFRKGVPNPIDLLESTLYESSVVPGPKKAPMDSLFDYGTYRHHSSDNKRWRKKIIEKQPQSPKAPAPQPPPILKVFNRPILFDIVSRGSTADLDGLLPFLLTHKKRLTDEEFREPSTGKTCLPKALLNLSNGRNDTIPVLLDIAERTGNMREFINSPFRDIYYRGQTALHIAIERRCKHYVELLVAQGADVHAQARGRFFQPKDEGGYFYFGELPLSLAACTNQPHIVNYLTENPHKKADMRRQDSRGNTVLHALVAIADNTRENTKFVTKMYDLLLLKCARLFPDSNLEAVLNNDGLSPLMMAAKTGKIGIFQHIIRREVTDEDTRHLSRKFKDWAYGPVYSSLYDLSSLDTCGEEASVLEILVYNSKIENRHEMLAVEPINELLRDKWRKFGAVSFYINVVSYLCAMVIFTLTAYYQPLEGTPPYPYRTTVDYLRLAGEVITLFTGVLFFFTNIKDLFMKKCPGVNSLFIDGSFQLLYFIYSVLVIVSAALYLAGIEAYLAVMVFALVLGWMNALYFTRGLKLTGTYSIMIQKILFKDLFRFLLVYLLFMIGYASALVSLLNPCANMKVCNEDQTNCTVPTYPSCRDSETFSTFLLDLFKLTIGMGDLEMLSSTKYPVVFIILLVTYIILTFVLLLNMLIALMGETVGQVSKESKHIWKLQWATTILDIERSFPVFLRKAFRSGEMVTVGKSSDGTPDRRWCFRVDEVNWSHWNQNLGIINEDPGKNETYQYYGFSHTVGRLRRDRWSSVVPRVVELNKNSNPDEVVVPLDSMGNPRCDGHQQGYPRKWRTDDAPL

IC50 (human TRPV4 [1]) [µM]	Ki (human TRPV4 [2]) [µM]	SMILES
0.33	0.169	Cc1c(C(=O)Nc2cccc(C(F)(F)F)c2)cc(-c2ccccc2)n1CCCN(C)C [Compound I-018]
0.86	0.427	Cc1c(C(=O)Nc2cccc(C(F)(F)F)c2)cc(-c2ccccc2)n1CCCNS(C)(=O)=O [Compound I-026]

SMILES	IC50 (human TRPV4 [1]) [µM]	Ki (human TRPV4 [2]) [µM]
Cc1c(C(=O)Nc2cccc(C(F)(F)F)c2)ccn1CCCN1CCOCC1 [Compound I-007]	8.9	1.45

Reference: US9340500B2, “Aromatic heterocyclic derivative having TRPV4-inhibiting activity” (SHIONOGI & CO., LTD., priority 2011, dated 2016)
